# Laboratory results published in the supplement of paper PMC9663587.
# Compound: C=CC(=O)Nc1ccc(C(=O)Nc2[nH]nc3c2CN(C(=O)N[C@H](CN(C)C)c2ccccc2)C3(C)C)cc1 [YKL-5-124]
# Assay: increase in dead-cell fraction, 72 h; higher = more death;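 also: breast cancer cell lines in 384-well plates, stained with Hoechst plus LIVE/DEAD far red dye and imaged, cells above an LDR intensity threshold counted dead, Hoechst-negative corpses included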
# Conditions: 0.001 µM
row,Cell Line,increase in dead-cell fraction
1,CAMA1,0.0009
2,EFM19,0.0076
3,EVSAT,0.0967
4,HCC38,0.0525
5,HCC70,0.0881

# Same assay, conditions: 0.003162 µM
row,Cell Line,increase in dead-cell fraction
1,CAMA1,0.0059
2,EFM19,0.0133
3,EVSAT,0.0973
4,HCC38,0.0845
5,HCC70,0.0945

# Same assay, conditions: 0.01 µM
row,Cell Line,increase in dead-cell fraction
1,CAMA1,0.0122
2,EFM19,0.0465
3,EVSAT,0.147
4,HCC38,0.102
5,HCC70,0.148

# Same assay, conditions: 0.03162 µM
row,Cell Line,increase in dead-cell fraction
1,CAMA1,0.0047
2,EFM19,0.0193
3,EVSAT,0.16
4,HCC38,0.109
5,HCC70,0.205

# Same assay, conditions: 0.1 µM
row,Cell Line,increase in dead-cell fraction
1,CAMA1,0.006
2,EFM19,0.0243
3,EVSAT,0.143
4,HCC38,0.115
5,HCC70,0.254

# Same assay, conditions: 0.3162 µM
row,Cell Line,increase in dead-cell fraction
1,CAMA1,0.0148
2,EFM19,0.0368
3,EVSAT,0.185
4,HCC38,0.184
5,HCC70,0.285

# Same assay, conditions: 1 µM
row,Cell Line,increase in dead-cell fraction
1,CAMA1,-0.0034
2,EFM19,0.0396
3,EVSAT,0.183
4,HCC38,0.197
5,HCC70,0.376

# Same assay, conditions: 3.162 µM
row,Cell Line,increase in dead-cell fraction
1,CAMA1,0.01
2,EFM19,0.0167
3,EVSAT,0.204
4,HCC38,0.147
5,HCC70,0.41

# Same assay, conditions: 10 µM
row,Cell Line,increase in dead-cell fraction
1,CAMA1,0.322
2,EFM19,0.0439
3,EVSAT,0.697
4,HCC38,0.407
5,HCC70,0.726

# Compound: CN(C)C(=O)c1cc2cnc(Nc3ccc(N4CCNCC4)cn3)nc2n1C1CCCC1 [LEE011/Ribociclib]
# Assay: as above
# Conditions: 0.001 µM
row,Cell Line,increase in dead-cell fraction
1,CAMA1,-0.0064
2,EFM19,-0.0027
3,EVSAT,0.0012
4,HCC38,-0.0042
5,HCC70,-0.0029

# Same assay, conditions: 0.003162 µM
row,Cell Line,increase in dead-cell fraction
1,CAMA1,-0.0056
2,EFM19,-0.0038
3,EVSAT,0.0024
4,HCC38,0.0013
5,HCC70,0.0024

# Same assay, conditions: 0.01 µM
row,Cell Line,increase in dead-cell fraction
1,CAMA1,-0.0011
2,EFM19,-0.0001
3,EVSAT,0.0001
4,HCC38,0.0118
5,HCC70,-0.0096

# Same assay, conditions: 0.03162 µM
row,Cell Line,increase in dead-cell fraction
1,CAMA1,-0.0009
2,EFM19,-0.0005
3,EVSAT,0.0046
4,HCC38,0.0031
5,HCC70,-0.0087

# Same assay, conditions: 0.1 µM
row,Cell Line,increase in dead-cell fraction
1,CAMA1,0.006
2,EFM19,0.0163
3,EVSAT,0.0067
4,HCC38,0.0263
5,HCC70,-0.0125

# Same assay, conditions: 0.3162 µM
row,Cell Line,increase in dead-cell fraction
1,CAMA1,0.0058
2,EFM19,0.0047
3,EVSAT,0.0048
4,HCC38,0.0209
5,HCC70,-0.0098

# Same assay, conditions: 1 µM
row,Cell Line,increase in dead-cell fraction
1,CAMA1,0.011
2,EFM19,0.0042
3,EVSAT,0.0025
4,HCC38,0.026
5,HCC70,-0.0021

# Same assay, conditions: 3.162 µM
row,Cell Line,increase in dead-cell fraction
1,CAMA1,0.0045
2,EFM19,0.0248
3,EVSAT,0.0016
4,HCC38,0.0204
5,HCC70,-0.0069

# Same assay, conditions: 10 µM
row,Cell Line,increase in dead-cell fraction
1,CAMA1,0.0049
2,EFM19,0.0149
3,EVSAT,0.0146
4,HCC38,0.0467
5,HCC70,-0.0152

# Compound: CN(C)C/C=C/C(=O)Nc1ccc(C(=O)N2CCC[C@@H](Nc3ncc(Cl)c(-c4c[nH]c5ccccc45)n3)C2)cc1 [THZ531]
# Assay: as above
# Conditions: 0.0001 µM
row,Cell Line,increase in dead-cell fraction
1,CAMA1,0.001
2,EFM19,-0.0038
3,EVSAT,0.0033
4,HCC38,-0.0063
5,HCC70,-0.0083

# Same assay, conditions: 0.0003162 µM
row,Cell Line,increase in dead-cell fraction
1,CAMA1,-0.0014
2,EFM19,-0.0067
3,EVSAT,-0.0022
4,HCC38,0.0002
5,HCC70,0.004

# Same assay, conditions: 0.001 µM
row,Cell Line,increase in dead-cell fraction
1,CAMA1,-0.0002
2,EFM19,-0.005
3,EVSAT,-0.0014
4,HCC38,0.0018
5,HCC70,-0.0113

# Same assay, conditions: 0.003162 µM
row,Cell Line,increase in dead-cell fraction
1,CAMA1,-0.005
2,EFM19,-0.0057
3,EVSAT,-0.0011
4,HCC38,0.0016
5,HCC70,-0.0062

# Same assay, conditions: 0.01 µM
row,Cell Line,increase in dead-cell fraction
1,CAMA1,0.0035
2,EFM19,-0.0007
3,EVSAT,0.0002
4,HCC38,-0.0096
5,HCC70,-0.0005

# Same assay, conditions: 0.03162 µM
row,Cell Line,increase in dead-cell fraction
1,CAMA1,0.0054
2,EFM19,0.0062
3,EVSAT,-0.0005
4,HCC38,0.0087
5,HCC70,0.0092

# Same assay, conditions: 0.1 µM
row,Cell Line,increase in dead-cell fraction
1,CAMA1,0.0126
2,EFM19,0.0006
3,EVSAT,0.0333
4,HCC38,0.0251
5,HCC70,0.227

# Same assay, conditions: 0.3162 µM
row,Cell Line,increase in dead-cell fraction
1,CAMA1,0.0499
2,EFM19,-0.0035
3,EVSAT,0.372
4,HCC38,0.156
5,HCC70,0.623

# Same assay, conditions: 1 µM
row,Cell Line,increase in dead-cell fraction
1,CAMA1,0.189
2,EFM19,0.527
3,HCC38,0.327
4,HCC70,0.805
